Reference: patent US5856189A, “Cell culture model for drug bioavailability” (priority 1997, dated 1999)

Columns and labels:
Caco-2 cells [1] = assay: Glucuronidation of 1'-OH-MDZ in Caco-2 cells; details: 2-24 h with 4 μM MDZ; β-glucuronidase
Procedure: The experiments of this example assess whether glucuronidation occurs in the culture system of the present invention. […] Each of a complete set of parallel 0.5 mL samples was diluted to a volume of 1 mL and spiked with 20 ng 1'-[^2 H2 ],1'-OH-MDZ (no glucuronidase treatment).

Caco-2 cells [2] = assay: Apical/basolateral distribution of midazolam and metabolite across Caco-2 monolayers; details: every time point, also after basolateral MDZ
Text: At the end of this period, the medium was replaced with medium not containing vitamin D (except that contributed by the 5% FBS).

CYP3A (Caco-2 cells) [3] = target: CYP3A (Caco-2 cells) (Homo sapiens, UniProt P08684); details: serum-free; 4 μM MDZ apical, 6.5 h; FIG. 9
Chain of CYP3A (Caco-2 cells) (Homo sapiens, UniProt P08684) (P08684 2-503): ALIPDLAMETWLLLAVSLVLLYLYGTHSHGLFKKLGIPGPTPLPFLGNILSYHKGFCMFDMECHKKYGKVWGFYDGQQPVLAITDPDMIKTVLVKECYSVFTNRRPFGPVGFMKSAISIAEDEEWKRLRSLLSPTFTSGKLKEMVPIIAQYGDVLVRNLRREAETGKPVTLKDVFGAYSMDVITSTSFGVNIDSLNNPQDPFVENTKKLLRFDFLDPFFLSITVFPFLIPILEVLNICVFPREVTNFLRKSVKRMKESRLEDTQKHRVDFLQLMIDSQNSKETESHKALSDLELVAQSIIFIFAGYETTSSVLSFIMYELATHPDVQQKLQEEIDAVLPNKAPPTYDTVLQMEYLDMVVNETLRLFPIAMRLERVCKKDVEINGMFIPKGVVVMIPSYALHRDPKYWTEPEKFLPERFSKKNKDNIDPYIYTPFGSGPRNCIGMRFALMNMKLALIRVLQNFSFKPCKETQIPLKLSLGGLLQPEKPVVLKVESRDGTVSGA
Procedure: Standards were also prepared in duplicate. Known amounts of MDZ and 1'-OH-MDZ (1-50 ng) were combined with 100 mM potassium phosphate buffer, pH 7.4.
Unknowns and standards were extracted with 5 mL ethyl acetate and the upper organic layer transferred to clean tubes. The solvent was evaporated to dryness under a stream of nitrogen. The remaining solvent was reconstituted in 100 μL derivatizing reagent (10% N-methyl-N-(t-butyldimethylsilyl)trifluoroacetamide in acetonitrile).
At the end of this period, the medium was replaced with medium not containing vitamin D (except that contributed by the 5% FBS). Next, 4 μM MDZ was added to the apical (luminal) or basolateral (serosal) medium of the cells.
Parent drug and metabolite concentrations measured at 1 and 2 hours after MDZ administration were used for computation. The amount of 1'-OH-MDZ formed during this interval was determined as the sum of metabolite in the apical and basolateral compartments at 2 hours minus the total amount measured at 1 hour.
Because the incubation medium contained significant amounts of FBS, the fraction of MDZ bound to culture medium proteins was measured by equilibrium dialysis. […] The unbound concentration of MDZ in the apical and basolateral compartments during cell culture was calculated as the product of the experimentally determined MDZ-free fraction and total MDZ concentration. Since MDZ concentrations in the apical and basolateral compartments were not at equilibrium during the 1-2 hour MDZ incubation interval, the intracellular reaction was assumed to be driven by a MDZ concentration that was more closely aligned with the concentration in the basolateral compartment.
At the end of this period, the medium was replaced with medium containing neither serum nor vitamin D. Next, MDZ (4 μM) was added to the apical compartment.

P-glycoprotein = assay: Immunoblot of P-glycoprotein in Caco-2 cells; assay type: cell-based, human
Text: (§1) The homogenates were electrophoresed in polyacrylamide gels containing 0.1% SDS, and the separated proteins were electrophoretically transferred to nitrocellulose. Nonspecific binding sites were blocked using 0.3% Tween 20 and 5% nonfat dry milk (Carnation) in Tris buffered saline.
(§2) P-glycoprotein was detected using a polyclonal rabbit antibody (Oncogene Science), and villin was detected using a mouse monoclonal antibody (Chemicon International).
(§3) Secondary antibodies of appropriate specificities conjugated with horseradish peroxidase were obtained commercially (rabbit anti-mouse IgG and goat anti-rabbit IgG/A/M from Zymed and mouse anti-goat IgG/A/M from Pierce). Binding of secondary antibodies was detected using the enhanced chemiluminescence (ECL™) reagents and film from Amersham.
(§4) Cell homogenates were then prepared as described above and immunoblots were performed; the Caco-2 protein loads were as follows: 10 ,μg for CYP3A, CYP3A5, P-glycoprotein, villin; 25 pg for CYP1A1, CYP2D6; 40 μg for IFABP, LFABP; 80 μg for NADPH cytochrome P450 reductase, cytochrome b5 (the villin, IFABP, and LFABP served as control proteins).

[4] = test system: CYP3A3 mRNA (Caco-2 cells); assay: RT-PCR of CYP3A3 mRNA in treated Caco-2 cells; assay type: cell-based, human; details: treated or untreated Caco-2 cells
Text: Primer sequences for amplification of CYP3A3, CYP3A4, CYP3A5, and
These are the same primer sequences previously used by J. C. Kolars et al. [Pharmacogenetics 4:247-259 (1994)], except that a different antisense primer (SEQ ID NO:9) was used for CYP3A5, and the first sense primer for CYP3A3 was paired with the second antisense primer used by Kolars et al. (i.e., in the present invention, SEQ ID NO:1 was paired with SEQ ID NO:2).

CYP3A5 = assay: Immunoblot of CYP3A5 protein in Caco-2 cells; assay type: cell-based, human; details: two weeks treatment, varying concentrations
Procedure: CYP3A5 was detected using an immunoadsorbed polyclonal rabbit antibody obtained from Dr. Steven A. Wrighton (Eli Lilly). The antibody may be generated by injecting rabbits subcutaneously with 100 μg of P450IIIA5 in 0.75 mL of phosphate-buffered saline in an emulsion made with 1.25 mL of Freund's complete adjuvant. Four weeks later, 50 μg of P450IIIA5 (in the same preparation) is injected. Finally, eight weeks from the initial injection, 50 μg of […] in 300 μL of phosphate-buffered saline is injected intravenously into the rabbits' ear vein. Serum was obtained 10 weeks following the initial immunization and weekly thereafter. The IgG fraction was then isolated and antibodies specific to CYP3A5 were isolated by adsorption of contaminating antibodies to sepharose-bound CYP3A4 [S. A. Wrighton et al., Mol. Pharmacol. 38:207-213 (1990).

[5] = test system: NADPH cytochrome P450 reductase; assay: Immunoblot of NADPH cytochrome P450 reductase in Caco-2 cells; details: for concentrations at which NADPH cytochrome P450 reductase level increased: two weeks treatment
Text: as §1, §3, §4
(§5) At that time, the medium was replaced with medium without vitamin D (except that contributed by the 5% FBS. Total RNA was then prepared as described above and subjected to RT-PCR using synthetic oligonucleotide primer pairs designed to selectively amplify fragments of the CYP3A4 and villin cDNAs (see Table 3). The numbers of PCR cycles were as follows: CYP3A4, 36; and villin, 27. Moreover, immunoblots were performed as described above for CYP3A, NADPH cytochrome P450 reductase, P-glycoprotein, and villin. The protein loads used for the immunoblot procedures were as follows: 5 μg for CYP3A, P-glycoprotein, villin; and 40 ,μg for NADPH cytochrome P450 reductase.

LFABP = assay: Immunoblot of LFABP in Caco-2 cells; assay type: cell-based, human; details: two weeks treatment, varying concentrations
Text: as §1, §2, §3, §4

CYP1A1 = assay: Immunoblot of CYP1A1 protein in Caco-2 cells; assay type: cell-based, human; details: two weeks treatment, varying concentrations
CYP3A (Caco-2 cells) [6] = assay: Immunoblot of CYP3A immunoreactive protein in treated Caco-2 cells; details: for CYP3A4 expression at the highest concentrations used: FIGS. 2C and 3
Procedure: The medium was aspirated and the inserts were washed three times with Hanks' BSS containing 15 mM HEPES. Cells grown on Matrigel- (or Growth Factor Reduced Matrigel-) coated inserts were removed from the membranes using Dispase according to the manufacturer's protocol. Thereafter, 5 mM EDTA in normal saline containing 1 mM PMSF and 1 mM benzamidine was added to inhibit further digestion. The cell suspension was transferred to a microcentrifuge tube and pelleted by centrifugation at 325 g. The pellets were washed three times with Hanks' BSS containing 15 mM HEPES, 1 mM PMSF, and 1 mM benzamidine. The final pellet was resuspended in a solution of 20% v/v glycerol, 100 mM Tris HCl (pH 7.4), 10 mM EDTA, 1 mM dithiothreitol, I mM PMSF, 1 mM benzamidine, and 100 μg/mL aprotinin and homogenized in a conical ground glass tissue grinder with 20 passes of a ground glass pestle. The homogenate was subjected to 10 seconds of sonication and was then kept at -80° C. until analysis.
Cells grown on uncoated inserts or inserts coated with non-Matrigel matrices were harvested by scraping into Hanks' BSS containing HEPES and protease inhibitors, washed three times, and then homogenized, sonicated, and frozen as described above.
as §1
CYP1A1 was detected using a polyclonal goat antibody (Gentest) developed against rat CYP1A1 and CYP1A2. […] CYP3A proteins were detected using a mouse monoclonal antibody ("13-7-10") obtained from Dr. Pierre Kremers (Universite de Liege, Liege, Belgium). […] This antibody detects all known forms of human CYP3A.
as §3
In some cases, immunoblot protein concentrations were determined by computer-aided densitometry. When this procedure was conducted, optical densities were performed on a Macintosh (Apple) computer using the publicly available NIH Image program (developed at the U.S. National Institutes of Health and available on the Internet at http://rsb.info.nih.gov/nih-image/). Individual exposures were scanned into binary images with a ScanJetIIc color scanner (Hewlett-Packard). An optical density-concentration standard curve was prepared using the bands from second loaded serial dilutions of purified CYP3A4 protein, and the optical densities of unknowns were converted to quantitative numbers by comparison to this curve. This allowed for correction of the nonlinearity of ECL light output and ECL Hyperfilm.

CYP2D6 = details: two weeks treatment, varying concentrations
Text: as §1
CYP2D6 was detected using a polyclonal rabbit antibody developed against unique antigenic peptides and was obtained from Dr. Alastair Cribb (Merck Research Laboratories, West Point, Pa.).
as §3

[7] = test system: CYP3A4 mRNA (Caco-2 cells)
Procedure: Harvesting for mRNA Analyses and RNA Isolation
The medium was aspirated and the culture inserts were washed three times with Hanks' BSS containing 15 mM HEPES. […] After 5 minutes, the cell lysate was transferred to a microcentrifuge tube and kept at -80° C. pending further processing. At a later time, the lysate was thawed quickly at 65° C., and total RNA was isolated according to the protocol of P. Chomczynski and N. Sacchi. Briefly, extraction was performed using the denaturing solution, 2M sodium acetate (pH 4), phenol, and chloroform (1:0.1:1:0.2). Next, precipitation was effected with 2 volumes of ethanol. Resolubilization and reprecipitation was then performed using the denaturing solution and 2 volumes of ethanol. […] The reagent volumes were adjusted proportionately as appropriate for the initial lysate volume.
(§6) cDNA was prepared from the total RNA using reverse transcriptase from avian myeloblastosis virus (Seikagaku America). […] The polymerase chain reaction was performed on 1 μL of a 1:10 dilution in water of a prepared cDNA.
Each thermal cycle consisted of 95° C. for 1 min, then 65° C. for 1 min 15 sec; after completing all cycles, a 10 min extension step at 65° C. was performed. The number of cycles performed in each PCR reaction is set forth below in the Examples.
(§7) PCR products were electrophoresed on agarose gels and stained with ethidium bromide. […] PCR products were judged to be of the size appropriate for amplification of the specific cDNA by comparison with molecular weight standards included on each gel.
An internal standard for quantitative competitive PCR of CYP3A4 cDNA was prepared by inserting a 30 base pair segment into the cDNA sequence to be amplified. PCR reaction mixtures were prepared by combining serial dilutions of a known amount of the standard cDNA and constant amounts of the unknown cDNA. The two cDNAs were amplified together and the products were separated on agarose gels. After staining with ethidium bromide, the two bands were quantitated densitometrically. An equivalence point (at which the densities of the standard and unknown bands are of equal optical density) was determined; the concentration of the unknown is equal to that of the standard at the point of equivalence.
The cells from all experiments were maintained in their respective differentiation media for two weeks post-confluence. Thereafter, the cells were used for midazolam metabolism studies and/or harvested for analysis of protein or mRNA (described below).
(§8) The numbers of PCR cycles were as follows: CYP3A4, 36; CYP3A5, 33; CYP3A7, 39; mdr-1, 34; IFABP, 32; and villin, 27.
as §5

[8] = test system: CYP3A5 mRNA (Caco-2 cells); assay: RT-PCR of CYP3A5 mRNA in treated Caco-2 cells; details: 0.05-1.0 μM, two weeks
Procedure: as §6
(§9) Each thermal cycle consisted of 95° C. for 1 min, then 65° C. for 1 min 15 sec; after completing all cycles, a 10 min extension step at 65° C. was performed.
as §7, §8

[9] = test system: CYP3A7 mRNA (Caco-2 cells); assay: RT-PCR of CYP3A7 mRNA in treated Caco-2 cells; details: 0.05-1.0 μM, two weeks
Procedure: as §6, §9, §7, §8

CYP3A (Caco-2 cells) [10] = test system: CYP3A (Caco-2 cells)
Procedure: At the end of that period, the medium was replaced with medium not containing vitamin D (except that contributed by the 5% FBS). […] After 6 hours, the apical and basolateral media were removed separately and analyzed for 1'-OH-MDZ concentration.
As previously indicated, the medium was aspirated and the inserts were washed three times with Hanks'BSS. […] After 6 hours, the amount of 1'-OH-MDZ was measured in the combined luminal plus basolateral medium from each culture and the rate of formation calculated.
For the experiments of this example, all cells (Caco-2 cell clones and the parent cell line) were grown on Matrigel-coated teflon culture inserts. […] At the end of this period, the medium was replaced with medium not containing vitamin D (except that contributed by the 5% FBS). Next, MDZ (4 μM) was added to the apical compartment. […] Catalytic activity and levels of protein expression were determined as previously described.
Catalytic activity and levels of protein expression were determined as previously described.

villin = assay: Immunoblot of villin in Caco-2 cells; assay type: cell-based, human; details: for villin expression at the highest concentrations used: FIG. 3
Text: as §1, §2, §3, §4

cytochrome b5 = assay: Immunoblot of cytochrome b5 in Caco-2 cells; assay type: cell-based, human; details: two weeks treatment, varying concentrations
Text: as §1, §3, §4

IFABP = assay: Immunoblot of IFABP in Caco-2 cells; assay type: cell-based, human; details: two weeks treatment, varying concentrations
Text: as §1, §2, §3, §4

Caco-2 cells [11] = details: cited from earlier work
[12] = two weeks treatment from confluence, 4 μM MDZ apical, 6 h, FIG. 2A

Compound: OCc1ncc2n1-c1ccc(Cl)cc1C(c1ccccc1F)=NC2 [1'-OH-MDZ, 1'-hydroxymidazolam]
- glucuronidation of 1'-OH-MDZ (Caco-2 cells [1]): had not occurred
- 1'-OH-MDZ concentration, apical vs basolateral (Caco-2 cells [2]): greater in the apical medium than in the basolateral medium
- rate of 1'-OH-MDZ formation under serum-free incubation (CYP3A (Caco-2 cells) [3]): decreased compared to that measured in the presence of serum
- rate of 1'-OH-MDZ formation, luminal vs basolateral medium (CYP3A (Caco-2 cells) [3]): greater in the luminal medium than in the basolateral medium

Compound: C=C1/C(=C\C=C2/CCC[C@]3(C)[C@@H]([C@H](C)CCCC(C)(C)O)CC[C@@H]23)C[C@@H](O)C[C@@H]1O [1α,25-(OH)2 -D3, 1α,25-dihydroxyvitamin D3]
- exposure time until P-glycoprotein increased (P-glycoprotein; 0.25 μM, FIG. 5A): about 72 hours
- CYP3A3 mRNA [4]: not detected
- level of CYP3A5 protein (CYP3A5): little change
- NADPH cytochrome P450 reductase expression among clones and parent line ([5]; 0.25 μM two weeks): variable responsiveness
- exposure time until NADPH cytochrome P450 reductase increased ([5]; 0.25 μM, FIG. 5A): 168 h
- concentrations at which NADPH cytochrome P450 reductase level increased [5]: ≥ 50 nM
- level of LFABP protein (LFABP): Neither of the FABPs showed changes in levels of expression
- level of CYP1A1 protein (CYP1A1): did not appear to change
- CYP3A immunoreactive protein, clones and parent line (CYP3A (Caco-2 cells) [6]; 0.25 μM two weeks, all five clones and parent): increased levels of CYP3A immunoreactive protein
- exposure time until increased CYP3A protein was evident (CYP3A (Caco-2 cells) [6]; 0.25 μM, FIG. 5A): 18 h
- CYP3A content by densitometry (CYP3A (Caco-2 cells) [6]; 0.5 μM, untreated 7.9): 20.6 pmol CYP3A/mg of total protein
- CYP3A expression in response to 1α,25-(OH)2 -D3 on Matrigel (CYP3A (Caco-2 cells) [6]; M+, D+, 0.25 μM): clearly enhanced when the Caco-2 cells were grown on Matrigel
- CYP3A4 expression at the highest concentrations used (CYP3A (Caco-2 cells) [6]): lower levels of expression
- concentration at which increase in CYP3A immunoreactive protein was evident / began (CYP3A (Caco-2 cells) [6]; two weeks treatment, FIG. 2C): 50 nM
- level of CYP2D6 protein (CYP2D6): did not appear to change
- exposure time at which CYP3A4 mRNA appeared to plateau ([7]; 0.25 μM, FIG. 5A): 120 h
- exposure time until increase in CYP3A4 mRNA was evident ([7]; 0.25 μM, FIG. 5A): 3 to 4 h
- CYP3A4 mRNA expression, dose-response ([7]; 0.05-1.00 μM, two weeks from confluence): increased CYP3A4 mRNA expression at all concentrations used
- expression of CYP3A4 mRNA ([7]; added to differentiation medium (0.63 μM), two weeks post-confluence, Matrigel-coated Millicell CM inserts): dramatic increase in the expression of CYP3A4 mRNA
- CYP3A5 mRNA expression [8]: appeared to increase in response to 1α,25-(OH)2 -D3, but to a much lesser degree
- CYP3A7 mRNA expression [9]: appeared to increase in response to 1α,25-(OH)2 -D3, but to a much lesser degree
- CYP3A catalytic activity, clones and parent line (CYP3A (Caco-2 cells) [10]; 0.25 μM two weeks, clones 4-8 and parent, untreated below limits of quantitation): demonstrably greater catalytic activity than the untreated cells
- exposure time until midazolam metabolism first detectable (CYP3A (Caco-2 cells) [10]; 0.25 μM, 4 μM MDZ apical, 6 h, FIG. 5B): 12 h
- difference in CYP3A catalytic activity among culture media (CYP3A (Caco-2 cells) [10]; 5% FBS media with 0.25 μM 1α,25-(OH)2 -D3): less than 4 fold
- CYP3A protein and catalytic activity without Matrigel (CYP3A (Caco-2 cells) [10]; M-, D+, 0.25 μM): increased CYP3A protein and catalytic activity in the absence of Matrigel
- extent of midazolam metabolism (CYP3A (Caco-2 cells) [10]; apical concentrations, FIG. 2A): dramatic increase in the extent of midazolam metabolism
- correlation (R) of midazolam 1'-hydroxylation activity with CYP3A immunoreactive protein (CYP3A (Caco-2 cells) [10]; clones and parent with and without treatment, p=0.0003): 0.987
- concentration at which increase in CYP3A catalytic activity was evident / began (CYP3A (Caco-2 cells) [10]; [12]): 50 nM
- villin expression at the highest concentrations used (villin): lower levels of expression

Compound: C=C1CC[C@H](O)C/C1=C/C=C1\CCC[C@]2(C)[C@@H]([C@H](C)CCCC(C)(C)O)CC[C@@H]12 [25-(OH)-D3, 25-hydroxyvitamin D3]
- concentrations at which immunoreactive P-glycoprotein increased (P-glycoprotein; two weeks treatment): ≥ 2.5 µM
- level of cytochrome b5 immunoreactive protein (cytochrome b5): did not appear to change
- level of CYP3A5 protein (CYP3A5): little change
- concentrations at which NADPH cytochrome P450 reductase level increased [5]: ≥ 500 nM
- level of LFABP protein (LFABP): Neither of the FABPs showed changes in levels of expression
- level of CYP1A1 protein (CYP1A1): did not appear to change
- CYP3A4 expression at the highest concentrations used (CYP3A (Caco-2 cells) [6]): lower levels of expression
- concentration at which CYP3A immunoreactive protein plateaued (CYP3A (Caco-2 cells) [6]; two weeks treatment, FIG. 2C): > 1000 nM
- concentration at which increase in CYP3A immunoreactive protein was evident / began (CYP3A (Caco-2 cells) [6]; two weeks treatment, FIG. 2C): 250 nM
- level of CYP2D6 protein (CYP2D6): did not appear to change
- CYP3A catalytic activity at 15 μM (CYP3A (Caco-2 cells) [10]; 15 μM, relative to maximum at 5 μM, FIG. 2B): substantially declined
- CYP3A catalytic activity at 20 μM (CYP3A (Caco-2 cells) [10]; 20 μM, FIG. 2B): declining still further
- maximal CYP3A catalytic activity achieved (CYP3A (Caco-2 cells) [10]; relative to 1α,25-(OH)2 -D3): not as great as that achieved with 1α,25-(OH)2 -D3
- concentration at which increase in CYP3A catalytic activity was evident / began (CYP3A (Caco-2 cells) [10]; [12]): 250 nM
- concentration at which CYP3A catalytic activity plateaued (CYP3A (Caco-2 cells) [10]; two weeks treatment from confluence, FIG. 2A): > 1000 nM
- concentration of maximal CYP3A catalytic activity (CYP3A (Caco-2 cells) [10]; two weeks treatment, FIG. 2B): 5000 nM
- level of IFABP protein (IFABP): Neither of the FABPs showed changes in levels of expression
- level of villin immunoreactive protein (villin; concentrations ≥10 μM, two weeks, not shown): decrease slightly
- villin expression at the highest concentrations used (villin): lower levels of expression

Compound: C=C1CC[C@H](O)C/C1=C/C=C1\CCC[C@]2(C)[C@@H]([C@H](C)CCCC(C)C)CC[C@@H]12 [D3, cholecalciferol]
- Caco-2 cell growth (Caco-2 cells [11]; Giuliano et al.): decrease in cell growth
- Caco-2 cell proliferation (Caco-2 cells [11]; Halline et al.): dose-dependent inhibition of cell proliferation
- effect on immunoreactive CYP3A protein (CYP3A (Caco-2 cells) [6]; up to 1.0 μM, two weeks): no effect
- effect on midazolam metabolism (CYP3A (Caco-2 cells) [10]; up to 1.0 μM, two weeks): no effect

Compound: CC(=O)OC/C=C(C)/C=C/C=C(C)/C=C/C1=C(C)CCCC1(C)C [Vitamin A, retinol acetate]
- enhancement of CYP3A4 mRNA expression [7]: did not appear to enhance CYP3A4 mRNA expression

Compound: NCC(=O)CCC(=O)O [delta-aminolevulinic acid]
- enhancement of CYP3A4 mRNA expression [7]: did not appear to enhance CYP3A4 mRNA expression

Compound: CCCC(=O)[O-].[Na+] [sodium butyrate]
- enhancement of CYP3A4 mRNA expression [7]: did not appear to enhance CYP3A4 mRNA expression

Compound: C=C1CC[C@H](O)C/C1=C/C=C1\CCC[C@]2(C)[C@@H]([C@H](C)/C=C/[C@H](C)C(C)C)CC[C@@H]12 [vitamin D2, ergocalciferol]
- enhancement of CYP3A4 mRNA expression [7]: did not appear to enhance CYP3A4 mRNA expression

Compound: CC1(S(=O)(=O)O)CC(=O)c2ccccc2C1=O (stereo not shown) [vitamin K, menadione sodium bisulfite]
- enhancement of CYP3A4 mRNA expression [7]: did not appear to enhance CYP3A4 mRNA expression
